Test results: US6713511B1, “Fatty acid derivatives” (priority 1998, dated 2004)
Where two headings read alike, the source gives them in different places.

Tests used:
Format in all cases: in vivo, rat
[1] = system: rats with unilateral caudate nucleus (striatum) lesion; assay: Rotational behavior in rats with unilateral striatum lesion, testing of (II)
Description: Three groups of 12 male Sprague-Dawley rats (Charles River Laboratories, Wilmington, Mass.) weighing 100-150 g, were housed 6 per cage in a well-ventilated and air-conditioned room of ambient temperature (22±2° C.) and relative humidity 45%. The rats had access to food (Big Red Laboratory Chow, Agway Inc., Syracuse, N.Y.) and water ad libitum. Light (“Vita Light”, Duro Test Corp., North Bergen, N.J.) was provided between 9 am and 9 pm. These groups were used for rotational study, the dosage of (II) being 100 mg/kg, i.p.
One group served as a control group (no treatment), a second group was a sham operated group, and a third group was the operated group. All surgery was performed under anesthesia (sodium pentobarbital, 50 mg/ml, as required). The rats were placed in a Kopf stereotaxic instrument (model #900). Unilateral anodal electrolytic lesions were made with constant current supply (lesion-producing device #58040, Stoelting, Chicago, Ill.). Current (2.0 mV for 10 seconds) was passed through stainless steel insulated wire pc 32, 0.008 inches diameter (“Formax”, Stoelting, Chicago, Ill.), bared only at the tip. The coordinates (modified from Konig and Klippel, 1963) for caudate nucleus lesion were: A 8.5, L 2.2, V+1.8. The lesions were made in the left side of the brain. Sham operated animals were treated as lesioned animals, i.e. they were placed in the stereotaxic instrument and an electrode was placed in the brain, but without passing electric current therethrough. After surgery, each rat was placed in an individual cage. Tests were made at day 10 after surgery. At the end of the experiment, each rat was given an overdose of pentobarbital and perfused with saline, followed by 10% formalin. Brains were removed and serial coronal slices were made at 40 micra, using a freezing microtome. Representative slides were stained with Cresyl Violet for verification of the lesion.
Details of the procedure with regard to determination of rotational behavior were substantially as described above for testing (I).

[2] = system: rats challenged with Ro4-1284; assay: Ro4-1284-induced blephrospasm model
Excerpt: This is an involuntary spasm of the orbicular muscles of the eye, causing forceful closure of the eyes. Symptomatically there is a significant increase in the rate of eyelid closures/min. This phenomenon is regarded as a type of dystonia, a decrease in the brain dopamine level being the etiology of this syndrome. Ro4-1284 is a powerful dopamine-depleting agent. In saline-treated animals, Ro4-1284 is able to induce an animal model of benign essential blephrospasm. Groups of rats similar to those described above were treated daily for 14 days with 25 mg/kg (II), i.p., and then were challenged with a dose of 40 mg/kg Ro4-1284, i.p. The results of this test were shown in the following Table.

[3] = system: rats with unilateral caudate nucleus (striatum) lesion
Excerpt: One of the major behavioral methods to measure the increase in dopamine activity in the brain is rotational behavior. Dopamine is the neurotransmitter in the striatum. The striatum controls motor movements and motor integration. In the brain there are two striata, in the right and left hemispheres, respectively. Unilateral ablation of a striatum will result in walking in circles, as the intact striatum is still functioning; Ungerstadt, U. et al., Brain Res., 1970, 24: 485-492, created a lesion in one striatum and measured the effect on rotational behavior. Since then, this technique has been used to screen molecules, such as stimulants or potential anti-Parkinson drugs, which induce increase in dopaminergic activity.
Groups of 6 male Sprague-Dawley rats (Charles River Laboratories, Wilmington, Mass.) weighing 100-120 g, were housed 6 per cage in a well-ventilated and air-conditioned room of ambient temperature (22±2° C.) and relative humidity 45%. The rats had access to food (Big Red Laboratory Chow, Agway Inc., Syracuse, N.Y.) and water ad libitum. Light (“Vita Light”, Duro Test Corp., North Bergen, N.J.) was provided between 9 am and 9 pm.
All surgery was performed under anesthesia (sodium pentobarbital, 50 mg/ml, as required). The rats were placed in a Kopf stereotaxic instrument (model #900). Unilateral anodal electrolytic lesions were made with constant current supply (lesion-producing device #58040, Stoelting, Chicago, Ill.). Current (2.0 mV for 10 seconds) was passed through stainless steel insulated wire pe 32, 0.008 inches diameter (“Formax”, Stoelting, Chicago, Ill.), bared only at the tip. […]
Rotational behavior was tested in a rotameter, modified from the design of Ungerstedt et al., 1970. […] The potentiometer (preamplifier 8805 A) measured and recorded the changes in the amount of current which passed through it, resulting from the rotational movements of the rats. […]
Each rat was placed in the rotameter and treated with an i.p. injection of saline or (I) (10 mg/kg) as prepared above. […] The frequency of turning was measured between 30-40 minutes post-injection. […]

[4] = lesioned rats, 100 mg/kg i.p., day 10 after surgery

**Q.** Which results are given for `CC/C=C\C/C=C\C/C=C\CCCCCCCC(=O)N[C@@H](Cc1ccc(O)cc1)C(=O)OC` [(II), N-β-linolenyltyrosine Methyl Ester]?
**A.** crossing of the blood-brain barrier ([1]; conclusion drawn from the behavioral testing): cross the blood-brain barrier; % L [1, 4]: 98%; % R [1, 4]: 2%; L (turns to the left) [1, 4]: 98; L + R [1, 4]: 100; R (turns to the right) [1, 4]: 2; rate of eyelid blinking/min. ([2]; 25 mg/kg (II) i.p. daily for 14 days, then Ro4-1284 40 mg/kg i.p., 30 minutes after Ro4-1284, p < 0.001): 5.00 ± 1.95 min⁻¹

**Q.** `CCC1(O)CC2c3cc(OC)c(OC)cc3CCN2CC1CC(C)C` (centres unmarked) [Ro4-1284, reference compound] was tested. Which “rate of eyelid blinking/min.” value ([2]; Ro4-1284 40 mg/kg i.p. alone, 30 minutes after treatment with Ro4-1284) did it give?
**A.** 19.08 ± 3.4 min⁻¹

**Q.** `CC/C=C\C/C=C\C/C=C\CCCCCCCC(=O)N[C@@H](Cc1ccc(O)cc1)C(=O)O` [(I), N-(α-linolenoyl)tyrosine] was tested. Which “rate of rotational motion” value ([3]; lesioned rats, 10 mg/kg i.p., 30-40 minutes post-injection, day 4 after surgery, increased from 4 cycles/minute) did it give?
**A.** 40 cycles/minute

**Q.** What about the “crossing of the blood-brain barrier” value ([3]; rat, in vivo) of the same compound?
**A.** cross the blood-brain barrier

**Q.** What about the “abnormal behavior (stereotype)” value ([3]; rat, in vivo, ip, 10 mg/kg) of the same compound?
**A.** not found
